Measured values from ChEMBL document CHEMBL5154721, “Discovery of HDAC6-Selective Inhibitor NN-390 with in Vitro Efficacy in Group 3 Medulloblastoma” (J Med Chem, 2022).
Active and inactive are the calls of the source. No cut-off for these calls is given here.

What was measured:
[1] = target: T1, Protein deacetylase HDAC6 (Homo sapiens, UniProt Q9UBN7); experiment: Inhibition of full length human recombinant HDAC6 expressed in Sf9 baculovirus system using FAM-labeled acetylated peptide as substrate by measuring fluorescence intensity by EMSA method
T1 sequence (Q9UBN7 whole entry): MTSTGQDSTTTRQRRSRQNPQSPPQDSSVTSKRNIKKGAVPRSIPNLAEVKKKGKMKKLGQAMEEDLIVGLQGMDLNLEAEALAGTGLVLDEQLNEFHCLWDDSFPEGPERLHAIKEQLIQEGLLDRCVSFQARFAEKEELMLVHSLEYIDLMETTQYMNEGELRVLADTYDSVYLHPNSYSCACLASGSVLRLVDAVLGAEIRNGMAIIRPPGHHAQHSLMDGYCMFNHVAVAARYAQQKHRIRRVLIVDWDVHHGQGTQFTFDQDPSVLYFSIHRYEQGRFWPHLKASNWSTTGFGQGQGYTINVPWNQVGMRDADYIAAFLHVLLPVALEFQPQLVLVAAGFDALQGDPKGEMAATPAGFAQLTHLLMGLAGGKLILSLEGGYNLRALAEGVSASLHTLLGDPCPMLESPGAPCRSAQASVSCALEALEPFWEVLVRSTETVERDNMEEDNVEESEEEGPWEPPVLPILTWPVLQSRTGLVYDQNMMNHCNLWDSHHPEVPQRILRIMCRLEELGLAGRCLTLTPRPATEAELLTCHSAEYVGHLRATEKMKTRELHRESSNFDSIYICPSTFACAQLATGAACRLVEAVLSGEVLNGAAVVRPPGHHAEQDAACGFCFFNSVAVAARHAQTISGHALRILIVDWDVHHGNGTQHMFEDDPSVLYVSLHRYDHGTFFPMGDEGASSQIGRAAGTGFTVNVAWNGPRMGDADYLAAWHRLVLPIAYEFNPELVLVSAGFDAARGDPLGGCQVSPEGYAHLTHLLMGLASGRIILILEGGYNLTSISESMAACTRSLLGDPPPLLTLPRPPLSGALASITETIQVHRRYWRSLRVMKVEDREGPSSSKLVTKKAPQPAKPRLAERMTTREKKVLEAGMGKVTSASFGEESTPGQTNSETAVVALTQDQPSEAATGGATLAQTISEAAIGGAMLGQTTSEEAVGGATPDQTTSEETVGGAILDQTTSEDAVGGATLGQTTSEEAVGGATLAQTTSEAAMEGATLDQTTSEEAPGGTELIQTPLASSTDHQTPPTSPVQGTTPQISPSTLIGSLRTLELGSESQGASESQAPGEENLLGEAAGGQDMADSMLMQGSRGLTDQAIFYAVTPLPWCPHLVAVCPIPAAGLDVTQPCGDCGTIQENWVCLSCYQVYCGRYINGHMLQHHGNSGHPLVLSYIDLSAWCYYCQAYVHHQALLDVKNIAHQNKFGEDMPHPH

[2] = target: T2, Histone deacetylase 11 (Homo sapiens, UniProt Q96DB2); experiment: Inhibition of full length human recombinant HDAC11 expressed in Sf9 baculovirus system using FAM-labeled acetylated peptide as substrate by measuring fluorescence intensity by EMSA method
T2 sequence (Q96DB2 whole entry): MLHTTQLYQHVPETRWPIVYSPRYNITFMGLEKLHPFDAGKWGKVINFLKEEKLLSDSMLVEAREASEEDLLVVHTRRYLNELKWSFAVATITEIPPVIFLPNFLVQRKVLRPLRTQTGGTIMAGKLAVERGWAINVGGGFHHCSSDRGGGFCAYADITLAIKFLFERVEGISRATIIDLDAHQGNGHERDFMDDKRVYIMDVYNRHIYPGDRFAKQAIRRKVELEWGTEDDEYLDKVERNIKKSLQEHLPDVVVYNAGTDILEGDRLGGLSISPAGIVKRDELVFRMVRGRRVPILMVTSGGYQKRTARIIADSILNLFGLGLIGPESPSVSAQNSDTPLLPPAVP

[3] = target: Histone deacetylase 3 (Homo sapiens, UniProt O15379); experiment: Inhibition of full length human recombinant HDAC3 expressed in Sf9 baculovirus system using FAM-labeled acetylated peptide as substrate by measuring fluorescence intensity by EMSA method
Chain of Histone deacetylase 3 (O15379 whole entry): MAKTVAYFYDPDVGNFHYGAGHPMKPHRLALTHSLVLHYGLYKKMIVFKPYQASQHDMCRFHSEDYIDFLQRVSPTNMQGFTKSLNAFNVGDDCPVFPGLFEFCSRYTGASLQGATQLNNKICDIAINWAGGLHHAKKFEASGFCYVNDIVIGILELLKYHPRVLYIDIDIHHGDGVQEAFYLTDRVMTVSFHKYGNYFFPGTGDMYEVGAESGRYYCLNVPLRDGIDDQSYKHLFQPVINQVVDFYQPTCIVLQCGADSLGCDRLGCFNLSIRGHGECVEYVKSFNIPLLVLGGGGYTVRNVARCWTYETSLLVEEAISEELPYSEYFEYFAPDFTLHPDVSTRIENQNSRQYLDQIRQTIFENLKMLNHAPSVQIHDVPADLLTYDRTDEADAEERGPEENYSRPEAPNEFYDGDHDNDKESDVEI

[4] = in vitro; conditions: human, MRC9 cells
[5] = Competitive inhibition of N-terminal His-SUMO tagged zebra fish recombinant HDAC6 catalytic domain 2 transfected with pET28b(+) vector in Escherichia coli BL21 (DE3) RILP cells incubated for 10 mins followed by addition of FITC-M344 measured af ter 10 mins by fluorescence polarization assay; design: species or system Danio rerio
[6] = target: T3, Histone deacetylase 8 (Homo sapiens, UniProt Q9BY41); experiment: Inhibition of full length human recombinant HDAC8 expressed in Sf9 baculovirus system using FAM-labeled acetylated peptide as substrate by measuring fluorescence intensity by EMSA method
T3 sequence (Q9BY41 whole entry): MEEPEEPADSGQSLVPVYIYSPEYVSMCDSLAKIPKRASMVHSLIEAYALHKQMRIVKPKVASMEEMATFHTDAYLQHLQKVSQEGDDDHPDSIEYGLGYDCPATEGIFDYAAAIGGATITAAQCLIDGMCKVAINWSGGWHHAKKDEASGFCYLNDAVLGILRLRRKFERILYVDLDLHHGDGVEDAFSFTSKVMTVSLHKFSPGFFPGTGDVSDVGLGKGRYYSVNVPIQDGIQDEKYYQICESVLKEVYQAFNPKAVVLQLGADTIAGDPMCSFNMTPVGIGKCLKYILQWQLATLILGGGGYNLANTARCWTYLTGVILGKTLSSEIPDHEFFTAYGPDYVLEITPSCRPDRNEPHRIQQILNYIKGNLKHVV

[7] = tested on: MM1.S; experiment: Cytotoxicity against human MM1.S cells assessed as inhibition of cell growth incubated for 72 hrs measured by spectrophotometer analysis; type: functional, cell-based
[8] = tested on: MV4-11; experiment: cells; type: functional, cell-based; conditions: Homo sapiens, MV4-11, 72 h
[9] = Stability in human plasma assessed as half life measured upto 60 mins by LC-MS/MS analysis; type: ADME, cell-free
[10] = AUCinfinity in CD-1 mouse at 20 mg/kg, ip; type: ADME, organism-based; design: time infinity, dose 20 mg/kg, route ip; conditions: in vivo
[11] = Cytotoxicity against human fetal neuronal stem cells assessed as inhibition of cell growth incubated for 72 hrs measured by spectrophotometer analysis; type: toxicity, cell-based, NSC
[12] = AUC/D in CD-1 mouse at 20 mg/kg, ip; type: ADME, organism-based; conditions: in vivo
[13] = tested on: MV4-11; experiment: Increase in acetylation of histone H3 in human MV4-11 cells at 0.1 uM after 6 hrs by Western blot analysis; type: functional, cell-based
[14] = Cytotoxicity against HUVEC cells assessed as inhibition of cell growth incubated for 72 hrs measured by spectrophotometer analysis; type: toxicity, cell-based; conditions: human
[15] = Cytotoxicity against primary normal human fibroblast cells assessed as inhibition of cell growth incubated for 72 hrs measured by spectrophotometer analysis; type: toxicity, cell-based
[16] = tested on: HD-MB03; experiment: […] of self renewal of BTIC-enriched human HD-MB03 cells at 964 nM incubated for 72 hrs by sphere formation assay; type: functional, cell-based
[17] = Cytotoxicity against human HD-MB03 cells assessed as inhibition of cell growth incubated for 72 hrs measured by spectrophotometer analysis; type: functional, cell-based; conditions: HD-MB03, 72 h
[18] = tested on: HD-MB03; experiment: Increase in acetylation of histone H3 in human HD-MB03 cells at 211 nM for 6 hrs by Western blotting anlaysis; type: functional, cell-based
[19] = tested on: MV4-11; experiment: Induction of apoptosis in human MV4-11 cells assessed as late apoptotic cells at 0.25 uM after 24 hrs by Annexin V/PI staining based flow cytometric analysis (Rvb=8.13%); type: functional
[20] = tested on: MV4-11; experiment: Induction of apoptosis in human MV4-11 cells assessed as late apoptotic cells at 2 uM after 18 hrs by Annexin V/PI staining based flow cytometric analysis; type: functional
[21] = Therapeutic window, ratio of IC50 for human fetal neuronal stem cells to IC50 for human HD-MB03 cells; type: ADME; conditions: fetal neuronal stem cells versus HD-MB03 cells, read-out: Ratio IC50
[22] = Lipophilicity, logP of the compound; type: physicochemical; conditions: octanol/water
[23] = AUClast in CD-1 mouse at 20 mg/kg, ip; type: ADME, organism-based; design: time 0 - last, dose 20 mg/kg, route ip; conditions: in vivo
[24] = Half life in CD-1 mouse at 20 mg/kg, ip; type: ADME, organism-based; conditions: in vivo
[25] = Cmax in CD-1 mouse at 20 mg/kg, ip; type: ADME, organism-based; design: dose 20 mg/kg, route ip; conditions: in vivo

| IC50 [1] | IC50 [2] | IC50 [3] | IC50 at 72 h [4] | IC50 [6] | IC50 [8] | Compound | IC50 [5] | IC50 [7] | other results |
| --- | --- | --- | --- | --- | --- | --- | --- | --- | --- |
| 49.9 nM | > 1000 nM | > 1000 nM | > 50000 nM | > 1000 nM | 2710 nM | O=C(NO)c1ccc(CN(C2CCCC2)S(=O)(=O)c2cc(F)c(F)c(F)c2F)cc1 | 356 nM | 3300 nM |  |
| 50.4 nM | > 1000 nM | > 1000 nM | > 25000 nM | > 1000 nM | 900 nM | O=C(NO)c1ccc2c(c1)CCN(S(=O)(=O)c1cc(F)c(F)c(F)c1F)C2 |  | 1540 nM |  |
|  |  |  | > 20000 nM | > 1000 nM | 400 nM | O=C(NO)c1ccc(CN(C2CC2)S(=O)(=O)c2cc(F)c(F)c(F)c2F)cc1 | 173 nM | 480 nM | half-life [9]: 41 min; AUC(0-inf) [10]: 1520 ng·h/mL; IC50 at 72 h [11]: 1430 nM; AUC/dose [12]: 79 ng·h/mL |
| 143 nM | > 1000 nM | > 1000 nM | > 25000 nM | 84.6 nM | 2500 nM | CC(C)N(Cc1ccc(CC(=O)NO)cc1)S(=O)(=O)c1cc(F)c(F)c(F)c1F |  | 2400 nM |  |
| 121 nM | > 1000 nM | > 1000 nM | > 50000 nM | > 1000 nM | 1000 nM | CC(C)N(Cc1ccc(C(=O)NO)cn1)S(=O)(=O)c1cc(F)c(F)c(F)c1F | 1130 nM | 1600 nM |  |
|  |  |  |  |  |  | O=C(CCCCCCC(=O)Nc1ccccc1)NO [VORINOSTAT] |  | 1540 nM |  |
| 4.32 nM |  |  | > 20000 nM |  |  | CC(C)N(Cc1ccc(C(=O)NO)cc1)S(=O)(=O)c1c(F)c(F)c(F)c(F)c1F | 182 nM | 440 nM | half-life [9]: 22 min; Activity [13]: Active; IC50 at 72 h [14]: 3700 nM; IC50 at 72 h [15]: 2300 nM |
|  |  |  | > 50000 nM |  |  | CC(C)N(Cc1ccc(C(=O)NO)cc1)C(=O)c1c(F)c(F)c(F)c(F)c1F |  | 12300 nM |  |
|  |  |  | > 30000 nM |  |  | O=C(CCCCCCNC(=O)c1cnc(N(c2ccccc2)c2ccccc2Cl)nc1)NO [CITARINOSTAT] | 154 nM |  | Activity [16]: Active; IC50 [17]: 5800 nM; Activity [18]: Active; inhibition [13]: Active; Activity [19]: 8.31%; Activity [20]: 24%; IC50 at 72 h [11]: 4350 nM |
|  |  |  |  |  |  | O=C(/C=C/c1cccc(S(=O)(=O)Nc2ccccc2)c1)NO [BELINOSTAT] | 213 nM |  | IC50 [17]: 320 nM; selectivity ratio [21]: 3.7 |
| 27.8 nM | > 1000 nM | > 1000 nM | > 25000 nM | > 1000 nM | 660 nM | COCCN(Cc1ccc(C(=O)NO)cc1)S(=O)(=O)c1cc(F)c(F)c(F)c1F |  | 710 nM |  |
|  |  |  | > 20000 nM |  |  | O=C(CCCCCCNC(=O)c1cnc(N(c2ccccc2)c2ccccc2)nc1)NO [RICOLINOSTAT] | 90.2 nM | 840 nM | IC50 [17]: 5220 nM |
| 16.2 nM | > 1000 nM | 899 nM | > 50000 nM | > 1000 nM | 7430 nM | CC(C)N(Cc1ccc(C(=O)NO)cc1)Cc1cc(F)c(F)c(F)c1F |  | 11400 nM | logP [22]: 4.07 |
| > 1000 nM | > 1000 nM | > 1000 nM | > 50000 nM | 474 nM | 5660 nM | COc1cc(C(=O)NO)ccc1CN(C(C)C)S(=O)(=O)c1cc(F)c(F)c(F)c1F |  | 5750 nM |  |
|  |  |  | > 20000 nM |  |  | CCCCN(Cc1ccc(C(=O)NO)cc1)C(=O)Nc1ccccc1 [NEXTURASTAT A] |  | 1760 nM | AUC(0-t) [23]: 2520 ng·h/mL; half-life [24]: 114 min; AUC(0-inf) [10]: 2550 ng·h/mL; Cmax [25]: 750 ng/mL; AUC/dose [12]: 126 ng·h/mL |
| 24.6 nM | > 1000 nM | > 1000 nM | > 50000 nM | > 1000 nM | 520 nM | CC(C)CN(Cc1ccc(C(=O)NO)cc1)S(=O)(=O)c1cc(F)c(F)c(F)c1F | 137 nM | 690 nM |  |
